Assay results from patent publication US20260125440A1, “INCRETIN ANALOGS AND USES THEREOF” (ELI LILLY AND COMPANY, priority 2019, published 2026).
Read-outs that look alike come from different tables or passages of the source. Numbered stars: 1 amine (or outer) side, 2 acyl side, 3 side chain; on linkers, the order of the positions; unused ones are H or OH. Square brackets hold non-standard residues; d marks the D form. Side chains are listed from the residue outwards. Peptide text beside a SMILES is read from it. * marks the point of attachment. ξ: configuration not given here. C20 diacid = O=C(O)CCCCCCCCCCCCCCCCCCC(=O)*; αMePhe(2-F) = C[C@](N)(Cc1ccccc1F)C(=O)O; γGlu = O=C(O)[C@H](CCC(=O)[*:2])N[*:1]; αMeY = C[C@](N)(Cc1ccc(O)cc1)C(=O)O; 4Pal = N[C@@H](Cc1ccncc1)C(=O)O; αMeL = CC(C)C[C@](C)(N)C(=O)O; Orn = NCCC[C@H](N)C(=O)O; ξIva = CCC(C)(N)C(=O)O; AEEA = NCCOCCOCC(=O)O; Aib = CC(C)(N)C(=O)O

What was measured:
hGLP-1R = molecular target: T1, hGLP-1R (Homo sapiens, UniProt P43220); test: Functional cAMP assay in HEK-293 cells expressing hGLP-1R; assay type: cell-based; settings: percent of maximal response to GLP-1(7-36)NH2
T1 construct: expressed in transfected cells; host or cells: HEK-293 clonal cell line
T1 sequence (P43220 24-463): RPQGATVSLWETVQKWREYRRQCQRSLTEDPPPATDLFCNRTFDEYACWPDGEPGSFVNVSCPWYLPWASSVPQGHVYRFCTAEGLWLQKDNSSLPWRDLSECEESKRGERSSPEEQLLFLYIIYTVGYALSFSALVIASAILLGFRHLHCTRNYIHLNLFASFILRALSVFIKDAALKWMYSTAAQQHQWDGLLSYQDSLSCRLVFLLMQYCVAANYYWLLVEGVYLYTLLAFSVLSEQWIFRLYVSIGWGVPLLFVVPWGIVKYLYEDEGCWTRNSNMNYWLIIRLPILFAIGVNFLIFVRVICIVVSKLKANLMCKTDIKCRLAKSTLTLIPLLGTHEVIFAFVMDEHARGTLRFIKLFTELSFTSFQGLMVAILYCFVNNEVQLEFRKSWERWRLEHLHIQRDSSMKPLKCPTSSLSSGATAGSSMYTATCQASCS
Description: (§1) Experiments also are performed under identical assay conditions with the addition of 1.0% fatty acid free, globulin free human serum albumin (Sigma Cat #A3782).
(§2) After a 30-min incubation at 37° C., the resulting increase in intracellular cAMP is quantitatively determined using a CisBio cAMP Dynamic 2 HTRF Assay Kit (62AM4PEJ). Briefly, cAMP levels within the cell are detected by adding the cAMP-d2 conjugate in cell lysis buffer (10 μL) followed by the antibody anti-cAMP-Eu^3+-Cryptate, also in cell lysis buffer (10 μL). The resulting competitive assay is incubated for at least 60 min at room temperature, and then is detected using a PerkinElmer Envision® instrument with excitation at 320 nm and emission at 665 nm and 620 nm. Envision units (emission at 665 nm/620 nm*10,000) are inversely proportional to the amount of cAMP present and are converted to nM cAMP per well using a cAMP standard curve. […] A relative EC50 value and percent top (Emax) are derived by non-linear regression analysis using the percent maximal response vs. the concentration of peptide added, fitted to a four-parameter logistic equation.

hGIPR = molecular target: T2, hGIPR (Homo sapiens, UniProt P48546); test: Functional cAMP assay in HEK-293 cells expressing hGIPR; assay type: cell-based; settings: percent of maximal response to GIP(1-42)NH2
T2 construct: expressed in transfected cells; host or cells: HEK-293 clonal cell line
T2 sequence (P48546 22-466): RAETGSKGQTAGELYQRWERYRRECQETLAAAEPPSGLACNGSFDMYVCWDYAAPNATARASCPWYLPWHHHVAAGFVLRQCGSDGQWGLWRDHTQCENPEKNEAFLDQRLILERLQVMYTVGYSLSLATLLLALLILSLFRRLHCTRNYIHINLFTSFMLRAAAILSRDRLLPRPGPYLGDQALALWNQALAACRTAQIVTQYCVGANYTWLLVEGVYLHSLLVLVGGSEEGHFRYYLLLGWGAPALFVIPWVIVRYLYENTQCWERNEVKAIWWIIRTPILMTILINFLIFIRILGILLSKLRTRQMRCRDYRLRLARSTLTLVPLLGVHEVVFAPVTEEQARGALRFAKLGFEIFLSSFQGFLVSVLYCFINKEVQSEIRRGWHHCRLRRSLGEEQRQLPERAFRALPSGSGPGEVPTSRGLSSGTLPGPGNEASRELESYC
Description: as §1, §2

[1] = Pharmacokinetics in male diet-induced obese (DIO) mice; assay type: in vivo; settings: mouse, single 200 nmol/kg SQ dose, plasma; for half-life: read-out: t½ (converted)
Description: Methods: Male DIO mice are administered a single SQ dose of 200 nmol/kg (0.98 mg/kg) of Example compounds in 40 mM Tris-HCL pH8 buffer with 0.02% PS80 at a volume of 10 mL/kg. […] Plasma concentration of Example compounds are determined by a qualified Liquid Chromatography Mass Spectrometry (LC/MS) method at Q Squared Solutions BioSciences LLC (Ithaca, NY). The Example compounds and an internal standard are extracted from 100% mouse plasma using protein precipitation followed by solid phase extraction. The intact mass of the Example compounds, which includes peptide plus acyl chain, are detected by a Q-Exactive™ Orbitrap® mass spectrometer.

SMILES	Emax (hGLP-1R; HEK293, read-out: hGLP-1R Emax, 0.1% bovine casein and 1.0% human serum albumin) [%]	Emax (hGLP-1R; HEK293, read-out: hGLP-1R Emax, 0.1% bovine casein) [%]	Emax (hGIPR; HEK293, read-out: hGIPR Emax, 0.1% bovine casein and 1.0% human serum albumin) [%]	Emax (hGIPR; HEK293, read-out: hGIPR Emax, 0.1% bovine casein) [%]	AUC(0-inf) ([1]; in vivo) [µM·h]	CL/F ([1]; in vivo) [mL/h/kg]	Cmax ([1]; in vivo) [nM]	Tmax ([1]; in vivo) [h]	half-life ([1]; in vivo) [h]	Emax (hGIPR; HEK293, 0.1% bovine casein and 1.0% human serum albumin, read-out: hGIPR Emax) [%]	Emax (hGIPR; HEK293, 0.1% bovine casein, read-out: hGIPR Emax) [%]	AUC(0-inf) ([1]; subcutaneous) [µM·h]	CL/F ([1]; subcutaneous) [mL/h/kg]	Cmax ([1]; subcutaneous) [nM]	Tmax ([1]; subcutaneous) [h]	half-life ([1]; subcutaneous) [h]
CC[C@H](C)[C@H](NC(=O)[C@H](Cc1ccccc1)NC(=O)[C@H](C)NC(=O)[C@H](Cc1ccncc1)NC(=O)[C@H](CCC(N)=O)NC(=O)[C@H](C)NC(=O)[C@H](CCCCNC(=O)COCCOCCNC(=O)CC[C@H](NC(=O)CCCCCCCCCCCCCCCCCCC(=O)O)C(=O)O)NC(=O)[C@H](CCCN)NC(=O)[C@H](CC(=O)O)NC(=O)[C@H](CC(C)C)NC(=O)[C@H](CC(C)C)NC(=O)[C@@H](NC(=O)[C@H](CO)NC(=O)[C@H](Cc1ccc(O)cc1)NC(=O)[C@H](CC(=O)O)NC(=O)[C@H](CO)NC(=O)[C@@H](NC(=O)[C@](C)(Cc1ccccc1F)NC(=O)[C@@H](NC(=O)CNC(=O)[C@H](CCC(N)=O)NC(=O)C(C)(C)NC(=O)[C@@H](N)Cc1ccc(O)cc1)[C@@H](C)O)[C@@H](C)O)[C@@H](C)CC)C(=O)N[C@@H](CCC(=O)O)C(=O)N[C@@H](Cc1ccc(O)cc1)C(=O)N[C@@H](CC(C)C)C(=O)N[C@@H](CC(C)C)C(=O)N[C@@H](CCC(=O)O)C(=O)NCC(=O)NCC(=O)N1CCC[C@H]1C(=O)N[C@@H](CO)C(=O)N[C@@H](CO)C(=O)NCC(=O)N[C@@H](CCC(=O)O)C(=O)N1CCC[C@H]1C(=O)N1CCC[C@H]1C(=O)N1CCC[C@H]1C(=O)N[C@@H](CCC(=O)O)C(N)=O [Example 1] (H-Y[Aib]QGT[αMePhe(2-F)]TSDYSILLD[Orn]K([AEEA-γGlu-C20 diacid])AQ[4Pal]AFIEYLLEGGPSSGEPPPE-NH2)	102 ± 4	106 ± 4	100 ± 3	102 ± 2	55.6	3.6	817	12	38							
CC[C@H](C)[C@H](NC(=O)[C@H](Cc1ccccc1)NC(=O)[C@H](C)NC(=O)C(C)(CC)NC(=O)[C@H](CCC(N)=O)NC(=O)[C@H](C)NC(=O)[C@H](CCCCNC(=O)COCCOCCNC(=O)CC[C@H](NC(=O)CCCCCCCCCCCCCCCCCCC(=O)O)C(=O)O)NC(=O)[C@H](CCCN)NC(=O)[C@H](CC(=O)O)NC(=O)[C@H](CC(C)C)NC(=O)[C@](C)(CC(C)C)NC(=O)[C@@H](NC(=O)[C@H](CO)NC(=O)[C@H](Cc1ccc(O)cc1)NC(=O)[C@H](CC(=O)O)NC(=O)[C@H](CO)NC(=O)[C@@H](NC(=O)[C@](C)(Cc1ccccc1F)NC(=O)[C@@H](NC(=O)CNC(=O)[C@H](CCC(N)=O)NC(=O)C(C)(C)NC(=O)[C@@H](N)Cc1ccc(O)cc1)[C@@H](C)O)[C@@H](C)O)[C@@H](C)CC)C(=O)N[C@@H](CCC(=O)O)C(=O)N[C@@](C)(Cc1ccc(O)cc1)C(=O)N[C@@H](CC(C)C)C(=O)N[C@@H](CC(C)C)C(=O)N[C@@H](CCC(=O)O)C(=O)NCC(=O)NCC(=O)N1CCC[C@H]1C(=O)N[C@@H](CO)C(=O)N[C@@H](CO)C(=O)NCC(=O)N[C@@H](CCC(=O)O)C(=O)N1CCC[C@H]1C(=O)N1CCC[C@H]1C(=O)N1CCC[C@H]1C(=O)N[C@@H](CO)C(N)=O (stereo partly shown) [Example 2] (H-Y[Aib]QGT[αMePhe(2-F)]TSDYSI[αMeL]LD[Orn]K([AEEA-γGlu-C20 diacid])AQ[ξIva]AFIE[αMeY]LLEGGPSSGEPPPS-NH2; N-terminus assumed)										99 ± 2	101 ± 2	42.5	4.7	1240	12	18
